From PMC10447463, “Data-mining unveils structure–property–activity correlation of viral infectivity enhancing self-assembling peptides” (Nature Communications, 2023)
Like-named read-outs stand apart in the source and are kept apart here.

Columns and labels:
[1] = Turbidity, derived count rate of scattered light; format: physicochemical; details: for Count Rate: derived count rate of scattered light (turbidity); for Log10 Count Rate: turbidity, derived count rate of scattered light, data of Figure 2D
[2] = tested on: HIV-1 infection of TZM-bl cells; experiment: HIV-1 infectivity enhancement assay, β-galactosidase luminescence; format: cell-based; details: for Rel-EFC / Log10 Infection Rel EFC: 1.3 µM peptide; for Rel-EFC: infection relative to EF-C (QCKIKQIINMWQ = 1); for Log10 Infection Rel EFC: log10 of infection relative to EF-C; for Log Infectivity: Log10 infection relative to EF-C, TZM-bl cells, asymmetric std dev errors; for Log10 Infection Rel EF-C: HIV-1 infection of TZM-bl cells; for Log10 Inf. rel. to EF-C: log10 of HIV-1 infection of TZM-bl cells relative to EF-C (EF-C = 0); for Abs. Inf.: absolute infection signal, HIV-1 on TZM-bl cells, β-galactosidase luminescence; for Log10 of Rel to EFC (Feb2021): Log10 of infection relative to EF-C, all peptides of FigS16
[3] = format: physicochemical; parameters: key to Fibril / Fibril Formation / TEM 2cat / Fibril: 1 = fibrils present; 0 non-fibrillar structures; details: for Fibril / Fibril Formation: 1 mg/mL, uranyl acetate stain, qualitative
[4] = Zeta-potential measurement; format: physicochemical
Method in brief: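 Dissolve peptide from DMSO (10 mg/mL stock) into PBS pH 7.4 to 1 mg/mL. Incubate 1 d, RT. Dilute in 1 mM KCl just before reading. Derive zeta potential from mobility (Smoluchowski).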

[5] = Fig. S7 panel A (plotted against β-sheet content)
[6] = Fig. S7 panel B (plotted against CR), rounded to two decimals
[7] = Log10 of infection rate relative to EF-C, Figure 3A source data
[8] = infection rate relative to EF-C, log10, data of Figure 2D
[9] = infection rate relative to EF-C, log10, source data of Figure 2C
[10] = FigS12 panel A, fibril category by TEM
[11] = TEM, 1 = fibrils present, 0 = non-fibrillar
[12] = TEM, 1 = fibrils present, 0 = non-fibrillar structures
[13] = zeta-potential of peptide, source data of Figure 2C
[14] = zeta-potential of the peptide assemblies, mean, Figure 3A source data
[15] = category: fibrils present or non-fibrillar

Substance | Count Rate [1] | Log10 Count Rate [1] | Rel-EFC [2] | Log10 Infection Rel EFC [2] | Log Infectivity [2, 5] | Log Infectivity [2, 6] | Log10 Infection Rel EF-C [2, 7] | Log10 Infection Rel EF-C [2, 8] | Log10 Infection Rel EF-C [2, 9] | Log10 Inf. rel. to EF-C [2] | TEM 2cat ([3]; Fig S10 panel D) | TEM 2cat [3, 10] | Fibril ([3]; FigS12 panel B, TEM) | Fibril / Fibril Formation ([3]; TEM) | Fibril [3, 11] | Fibril [3, 12] | Zeta-Potential / mV [4, 13] | Zeta-Potential / mV [4, 14] | Abs. Inf. [2] | Zeta-Pot. [4] | also measured
KAKAQA | 20.93 | 1.321 | 0,02 | -1,74 | -1.743 | -1.74 | -1.74 | -1.743 | -1.743 | -1.743 | 0 | 0 | 0 | 0 | 0 | 0 | -10.04 mV | -14.08 mV | – | – | Abs. Infection at 0.26 µM ([2]; peptide 0.26 µM, mean of n = 3, Figure 4A): 100; Infect 1 0.26 µM ([2]; peptide 0.26 µM, replicate 1, absolute infection signal, Figure 4A): -23.33; Infect 2 0.26 µM ([2]; peptide 0.26 µM, replicate 2, absolute infection signal, Figure 4A): 166.67; Infect 3 0.26 µM ([2]; peptide 0.26 µM, replicate 3, absolute infection signal, Figure 4A): 156.67; Abs. Infection at 1.3 µM ([2]; peptide 1.3 µM, mean of n = 3, Figure 4A): 146.7; Infect 1 .3 µM ([2]; peptide 1.3 µM, replicate 1, absolute infection signal, Figure 4A): 126.67; Infect 2 1.3µM ([2]; peptide 1.3 µM, replicate 2, absolute infection signal, Figure 4A): 46.67; Infect 3 1.3 µM ([2]; peptide 1.3 µM, replicate 3, absolute infection signal, Figure 4A): 266.67; Fibril ([3]; Fig S10 panel E): 0; Zeta-Pot. ([4]; zeta potential of peptide assemblies): -14.08
NMWQKAKAQA | 242.2 | 2.384 | 0,04 | -1,38 | -1.376 | – | -1.38 | -1.376 | -1.376 | -1.376 | 1 | 1 | 1 | 1 | 1 | 1 | -4.582 mV | -5.56 mV | 1137 | -5.56 | –
KFKQFFNMWQ | 236.9 | 2.375 | 0,09 | -1,05 | -1.0494 | – | -1.05 | -1.0494 | -1.0494 | -1.0494 | 0 | 0 | 0 | 0 | 0 | 0 | -2.615 mV | -3.43 mV | 1000 | -3.43 | –
CRFRVPF | 73.97 | 1.869 | 0,02 | -1,7 | -1.701 | -1.7 | -1.7 | -1.701 | -1.701 | -1.701 | 0 | 0 | 0 | 0 | 0 | 0 | 1.957 mV | 4.41 mV | 376.7 | 4.413 | Fibril ([3]; Fig S10 panel E): 0
RLRLTLC | 125.6 | 2.0991 | 0,05 | -1,29 | -1.288 | -1.29 | -1.29 | -1.288 | -1.288 | -1.288 | 1 | 1 | 1 | 1 | 1 | 1 | 20.73 mV | 19.67 mV | 1334 | 19.67 | Fibril ([3]; Fig S10 panel E): 1
FKFDKFKFDK | 45.13 | 1.6545 | 0,05 | -1,33 | -1.334 | – | -1.33 | -1.334 | -1.334 | -1.334 | 0 | 0 | 0 | 0 | 0 | 0 | -8.027 mV | -12.7 mV | 513.3 | -12.7 | –
CKFKFQFNM | 2224 | 3.347 | 1,24 | 0,09 | 0.09417 | 0.09 | 0.09 | 0.09417 | 0.09417 | 0.09417 | 1 | – | – | 1 | 1 | 1 | 14.97 mV | 15.13 mV | 28183.33333 | 15.13 | Log10 of Rel to EFC (Feb2021) [2]: 0.09; Fibril ([3]; Fig S10 panel E): 1; TEM 2cat [3, 15]: 1
MKFKFQF | 124 | 2.0933 | 0,06 | -1,2 | -1.196 | -1.2 | -1.2 | -1.196 | -1.196 | -1.196 | 1 | 1 | 1 | 1 | 1 | 1 | -0.4917 mV | -3.13 mV | 1427 | -3.133 | Fibril ([3]; Fig S10 panel E): 1
HIHIQIC | 260.6 | 2.416 | 0,27 | -0,57 | -0.5672 | -0.57 | -0.57 | -0.5672 | -0.5672 | -0.5672 | 1 | – | – | 1 | 1 | 1 | -5.093 mV | -3.69 mV | 4621 | -3.687 | Log10 of Rel to EFC (Feb2021) [2]: -0.57; Fibril ([3]; Fig S10 panel E): 1; TEM 2cat [3, 15]: 1
NMWQKVGTPL | 26.97 | 1.431 | 0,02 | -1,61 | -1.607 | – | -1.61 | -1.607 | -1.607 | -1.607 | 0 | 0 | 0 | 0 | 0 | 0 | -5.334 mV | -9.62 mV | 276.7 | -9.62 | –
